{"source": "paper PMC11050087", "about": "“Polyphenols from Maackia amurensis Heartwood Protect Neuronal Cells from Oxidative Stress and Prevent Herpetic Infection” (International Journal of Molecular Sciences, 2024)", "key": {"[1]": {"test_system": "6-OHDA-treated Neuro-2a cells", "test": "6-OHDA-induced neurotoxicity model, cell viability test (MTT)", "assay_type": "cell-based, murine", "conditions": "compounds at 10, 1, 0.1 µM; 6-OHDA 100 µM"}, "[2]": {"test_system": "PQ-treated Neuro-2a cells", "test": "ROS analysis in PQ-treated cells (H2DCF-DA)", "assay_type": "cell-based, murine", "conditions": "PQ 1 mM", "method": "We previously studied the effect of stilbens 9, 10, 11, and 13 on cell viability and ROS level in PQ-treated Neuro-2a cells. Here, we evaluated the neuroprotective potential against the toxic effect of PQ of stilbene 1, flavonoid 6 and isoflavonoids 2–5, 7, 12 (Figure 7a–d).\nFigure 7 The effect of polyphenolic compounds isolated from M. amurensis heartwood on cell viability (a–c) and ROS levels (d) in Neuro-2a cells treated with PQ (1 mM). Polyphenolic compounds isolated from M. amurensis heartwood were used at concentrations 10, 1, 0.1 μM. The data are presented as means ± SEM of three independent replicates. (*), (**), and (***) indicate, respectively, p < 0.05, p < 0.005, and p < 0.001 versus PQ-treated cells.\nAfter 24 h of adhesion, Neuro-2a cells (5 × 10^4 cells/mL) were incubated with polyphenolic compounds at concentrations of 0.1, 1, and 10 µM for 1 h. Then, 120 µM of 6-OHDA or 1 mM of PQ were added to each well, and cells were incubated for 1 h. To study the ROS formation, 20 µL of 2,7-dichlorodihydrofluorescein diacetate solution (H2DCF-DA, Sigma-Aldrich, St. Louis, MO, USA) were added to each well, so that the final concentration was 10 µM. Then, the microplate was incubated for 30 min at 37 °C."}}, "data": [{"smiles": "Oc1cc(O)cc(/C=C/c2ccc3c(c2)O[C@H](c2cc(O)cc(O)c2)[C@@H](c2ccc(O)c(O)c2)O3)c1", "note": "[Compound 9, maackin]", "values": [{"measurement": "effect on viability of 6-OHDA-treated Neuro-2a cells (in words)", "setting": "[1]", "result": "did not show significant activity"}]}, {"smiles": "O=C1C[C@@H](c2ccc(O)cc2)Oc2cc(O)ccc21", "note": "[Compound 6, liquiritigenin]", "values": [{"measurement": "effect on ROS level in PQ-treated Neuro-2a cells (in words)", "setting": "[2]", "result": "effectively reduced the ROS level"}]}, {"smiles": "Oc1ccc(/C=C/c2cc(O)cc(O)c2)cc1", "note": "[Compound 1, resveratrol]", "values": [{"measurement": "effect on viability of 6-OHDA-treated Neuro-2a cells (in words)", "setting": "[1]", "result": "did not cause any increase in the viability"}]}]}
